Columns and labels:
[1] = target: T1, full length Keap1 protein / full length NRF2 protein (Homo sapiens, UniProt Q14145); test: NRF2-Keap1 TR-FRET Assay; assay type: binding; conditions: 25 nM Keap1-FlagHis and 50 nM biotin-NRF2 added
T1 construct: full length NRF2 protein and full length Keap1 protein (Keap1 exists a dimer) are used; His
How it was run: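 Displacement of biotinylated full-length NRF2 from full-length Keap1 read by Eu/APC TR-FRET (665/615 nm) after 1 h detection at RT. Compound, 3-fold series, first incubated with Keap1 at 37 °C for 2.25 h, NRF2 then added at 4 °C for 1.25 h; pIC50 by four-parameter equation.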

[2] = target: T1, full length Keap1 protein / full length NRF2 protein; test: NRF2-Keap1 TR-FRET Low Protein Assay; assay type: binding; conditions: 1.25 nM Keap1 FlagHis and 2.5 nM biotin-NRF2 added
How it was run: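 Flag-tagged full-length Keap1 was preincubated with compound (3-fold series) for 2.25 h at 37 °C in Tris pH 8.0/MgCl2/NaCl/BSA/DTT/CHAPS. Biotin-Avi-NRF2 (added at 2.5 nM) was then bound for 1.25 h at 4 °C. Eu-streptavidin/anti-Flag-APC TR-FRET (665/615 nm) was read after 1 h at RT, and pIC50 came from a four-parameter fit.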

T1 sequence (Q14145 whole entry): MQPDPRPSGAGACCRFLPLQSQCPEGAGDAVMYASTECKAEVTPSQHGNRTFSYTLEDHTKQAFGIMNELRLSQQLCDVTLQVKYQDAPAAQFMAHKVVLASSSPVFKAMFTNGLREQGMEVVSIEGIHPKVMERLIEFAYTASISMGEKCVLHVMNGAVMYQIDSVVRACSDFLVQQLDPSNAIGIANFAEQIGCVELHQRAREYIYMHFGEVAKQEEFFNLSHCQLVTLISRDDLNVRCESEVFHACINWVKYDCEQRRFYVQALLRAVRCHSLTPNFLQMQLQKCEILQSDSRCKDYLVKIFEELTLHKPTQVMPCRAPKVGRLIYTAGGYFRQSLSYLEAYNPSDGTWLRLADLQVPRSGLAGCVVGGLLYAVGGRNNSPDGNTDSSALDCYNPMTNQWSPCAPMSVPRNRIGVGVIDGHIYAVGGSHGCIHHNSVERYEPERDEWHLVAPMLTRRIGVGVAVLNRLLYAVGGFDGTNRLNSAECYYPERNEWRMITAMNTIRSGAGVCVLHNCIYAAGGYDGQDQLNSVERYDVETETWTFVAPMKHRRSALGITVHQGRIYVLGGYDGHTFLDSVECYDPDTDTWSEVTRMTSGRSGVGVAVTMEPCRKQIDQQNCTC

Compound | IC50 [1] [nM] | IC50 [2] [nM]
CC(Oc1cccc(-c2cccc(-n3ncc(C(=O)O)c3[C@H]3C[C@@H]3c3cn(C)nn3)c2)c1)C1CCCCCC1 (mixture of isomers) [Example 230, 1-(3′-(1-Cycloheptylethoxy)-[1,1′-biphenyl]-3-yl)-5-((1,2-trans)-2-(1-methyl-1H-1,2,3-triazol-4-yl)cyclopropyl)-1H-pyrazole-4-carboxylic acid] | 10 to 100 | 10 to 100
Cc1nn(-c2cccc(-c3cccc(OCC4CCCCC4)c3)c2)c(C2CC2c2cn(C)nn2)c1C(=O)O (stereo not drawn) [Example 188, 1-(3′-(cyclohexylmethoxy)-[1,1′-biphenyl]-3-yl)-3-methyl-5-(2-(1-methyl-1H-1,2,3-triazol-4-yl)cyclopropyl)-1H-pyrazole-4-carboxylic Acid] | 1000 to 10000 | 1000 to 10000
Cn1cc([C@@H]2C[C@H]2c2c(C(=O)O)cnn2-c2cccc(-c3cccc(OCC4CCSCC4)c3)c2)nn1 (racemic) [Example 149, 5-((1,2-trans)-2-(1-Methyl-1H-1,2,3-triazol-4-yl)cyclopropyl)-1-(3′-((tetrahydro-2H-thiopyran-4-yl)methoxy)-[1,1′-biphenyl]-3-yl)-1H-pyrazole-4-carboxylic acid] | 100 to 1000 | 10 to 100
Cn1cc([C@@H]2C[C@H]2c2c(C(=O)O)cnn2-c2cccc(-c3cccc(OCC4CCCSC4)c3)c2)nn1 (mixture of isomers) [Example 144, 5-((1,2-trans)-2-(1-Methyl-1H-1,2,3-triazol-4-yl)cyclopropyl)-1-(3′-((tetrahydro-2H-thiopyran-3-yl)methoxy)-[1,1′-biphenyl]-3-yl)-1H-pyrazole-4-carboxylic Acid] | 100 to 1000 | 10 to 100
Cn1cc(C2CC2c2c(C(=O)O)cnn2-c2cccc(-c3cccc(OCC4CCCCC4)c3)c2)nn1 (stereo not drawn) [Example 164, 1-(3′-(Cyclohexylmethoxy)-[1,1′-biphenyl]-3-yl)-5-(2-(1-methyl-1H-1,2,3-triazol-4-yl)cyclopropyl)-1H-pyrazole-4-carboxylic acid] | 100 to 1000 | 10 to 100
O=C(O)c1cnn(-c2cccc(-c3cccc(C(=O)N(CC4CCCC4)CC4CC4)c3F)c2)c1C1CC1 [Example 14, 1-(3-{3-[(Cyclopentylmethyl)(cyclopropylmethyl)carbamoyl]-2-fluorophenyl}phenyl)-5-cyclopropyl-1H-pyrazole-4-carboxylic Acid] | 100 to 1000 | 10 to 100
CCC[C@@H]1CCCCN1C(=O)c1cccc(-c2cccc(-n3ncc(C(=O)O)c3[C@@H]3C[C@H]3c3cn(C)nn3)c2)c1 [Example 51h, 5-[(1R,2R)-2-(1-methyl-1H-1,2,3-triazol-4-yl)cyclopropyl]-1-(3-{3-[(2R)-2-propylpiperidine-1-carbonyl]phenyl}phenyl)-1H-pyrazole-4-carboxylic Acid] | 10 to 100 | < 10
Cn1cc([C@H]2C[C@@H]2c2c(C(=O)O)cnn2-c2cccc(-c3cccc(OCc4ccc(-c5ccccc5)cc4)c3)c2)nn1 (racemic) [Example 237, 1-(3′-([1,1′-Biphenyl]-4-ylmethoxy)-[1,1′-biphenyl]-3-yl)-5-((1,2-trans)-2-(1-methyl-1H-1,2,3-triazol-4-yl)cyclopropyl)-1H-pyrazole-4-carboxylic Acid] | 1000 to 10000 | 100 to 1000
CCCC1CCCCN1C(=O)c1cccc(-c2cccc(-n3ncc(C(=O)O)c3C3CC3)c2)c1F (stereo not drawn) [Example 17, 5-Cyclopropyl-1-{3-[2-fluoro-3-(2-propylpiperidine-1-carbonyl)phenyl]phenyl}-1H-pyrazole-4-carboxylic Acid] | 100 to 1000 | 10 to 100
Cn1cc([C@@H]2C[C@H]2c2c(C(=O)O)cnn2-c2cccc(-c3cccc(OCC4CCCCC4)c3)c2)nn1 [Example 171, 1-(3′-(Cyclohexylmethoxy)-[1,1′-biphenyl]-3-yl)-5-((1R,2R)-2-(1-methyl-1H-1,2,3-triazol-4-yl)cyclopropyl)-1H-pyrazole-4-carboxylic acid] | 100 to 1000 | 10 to 100
CCC[C@@H]1CCCCN1C(=O)c1cccc(-c2cc(C)cc(-n3ncc(C(=O)O)c3[C@@H]3C[C@H]3c3cn(C)nn3)c2)c1 (single isomer, unassigned) [Example 155] | 10 to 100 | < 10
CC(Oc1cccc(-c2cccc(-n3ncc(C(=O)O)c3C3CC3c3cn(C)nn3)c2)c1)C1CCCC1 (stereo not drawn) [Example 228, 1-(3′-(1-Cyclopentylethoxy)-[1,1′-biphenyl]-3-yl)-5-(2-(1-methyl-1H-1,2,3-triazol-4-yl)cyclopropyl)-1H-pyrazole-4-carboxylic acid] | 100 to 1000 | 10 to 100
CC(Oc1cccc(-c2cccc(-n3ncc(C(=O)O)c3[C@H]3C[C@@H]3c3cn(C)nn3)c2)c1)C1CCCCC1 (stereo partly drawn) [Example 165, 1-(3′-(1-Cyclohexylethoxy)-[1,1′-biphenyl]-3-yl)-5-((1S,2S)-2-(1-methyl-1H-1,2,3-triazol-4-yl)cyclopropyl)-1H-pyrazole-4-carboxylic acid] | 10 to 100 | < 10
CCC[C@@H]1CCCCN1C(=O)c1cccc(-c2cccc(-n3ncc(C(=O)O)c3C3CC3c3cn(C)nn3)c2)c1F (stereo partly drawn) [Example 57, 1-(2′-Fluoro-3′-((R)-2-propylpiperidine-1-carbonyl)-[1,1′-biphenyl]-3-yl)-5-(2-(1-methyl-1H-1,2,3-triazol-4-yl)cyclopropyl)-1H-pyrazole-4-carboxylic Acid] | 10 to 100 | < 10
CC(Oc1cccc(-c2cccc(-n3ncc(C(=O)O)c3[C@H]3C[C@@H]3c3cn(C)nn3)c2)c1)c1cccc(-c2ccccc2)c1 (mixture of isomers) [Example 239, 1-(3′-(1-([1,1′-Biphenyl]-3-yl)ethoxy)-[1,1′-biphenyl]-3-yl)-5-((1,2-trans)-2-(1-methyl-1H-1,2,3-triazol-4-yl)cyclopropyl)-1H-pyrazole-4-carboxylic Acid] | 100 to 1000 | 100 to 1000
Cn1cc(C2CC2c2c(C(=O)O)cnn2-c2cccc(-c3cccc(-n4ncc5c4C(C)(C)CC5)c3)c2)nn1 (stereo not drawn) [Example 212, 1-(3′-(6,6-Dimethyl-5,6-dihydrocyclopenta[c]pyrazol-1(4H)-yl)-[1,1′-biphenyl]-3-yl)-5-(2-(1-methyl-1H-1,2,3-triazol-4-yl)cyclopropyl)-1H-pyrazole-4-carboxylic Acid] | 10 to 100 | < 10
Cn1cc([C@@H]2C[C@H]2c2c(C(=O)O)cnn2-c2cccc(-c3cncc(OCC4CCCCC4)c3)c2)nn1 (racemic) [Example 246, 1-(3-(5-(Cyclohexylmethoxy)pyridin-3-yl)phenyl)-5-(trans-2-(1-methyl-1H-1,2,3-triazol-4-yl)cyclopropyl)-1H-pyrazole-4-carboxylic Acid] | 1000 to 10000 | 100 to 1000
CC(Oc1cccc(-c2cccc(-n3ncc(C(=O)O)c3[C@H]3C[C@@H]3c3cn(C)nn3)c2)c1)C1CCCCC1 (single isomer, unassigned) [Example 191] | 100 to 1000 | 100 to 1000
Cn1cc(C2CC2c2c(C(=O)O)cnn2-c2cccc(-c3cccc(OCc4cccc(F)c4)c3)c2)nn1 (stereo not drawn) [Example 224, 1-(3′-((3-Fluorobenzyl)oxy)-[1,1′-biphenyl]-3-yl)-5-(2-(1-methyl-1H-1,2,3-triazol-4-yl)cyclopropyl)-1H-pyrazole-4-carboxylic acid] | 100 to 1000 | 100 to 1000
Cn1cc(C2CC2c2c(C(=O)O)cnn2-c2cccc(-c3cccc(OC4CCCN(C(=O)OC(C)(C)C)C4)c3)c2)nn1 (stereo not drawn) [Example 232, 1-(3′-((1-(tert-Butoxycarbonyl)piperidin-3-yl)oxy)-[1,1′-biphenyl]-3-yl)-5-(2-(1-methyl-1H-1,2,3-triazol-4-yl)cyclopropyl)-1H-pyrazole-4-carboxylic acid] | 10 to 100 | 10 to 100
Cn1cc([C@H]2C[C@@H]2c2c(C(=O)O)cnn2-c2cccc(-c3cccc(-n4ncc5c4C(C)(C)CC5)c3)c2)nn1 (stereo in doubt) [Example 208, 1-(3′-(6,6-Dimethyl-5,6-dihydrocyclopenta[c]pyrazol-1(4H)-yl)-[1,1′-biphenyl]-3-yl)-5-((1S,2S)-2-(1-methyl-1H-1,2,3-triazol-4-yl)cyclopropyl)-1H-pyrazole-4-carboxylic Acid] | 10 to 100 | < 10
COC(c1cccc(-c2cccc(-n3ncc(C(=O)O)c3C3CC3c3cn(C)nn3)c2)c1)C1CCCCC1 (stereo not drawn) [Example 244, 1-(3′-(Cyclohexyl(methoxy)methyl)-[1,1′-biphenyl]-3-yl)-5-(2-(1-methyl-1H-1,2,3-triazol-4-yl)cyclopropyl)-1H-pyrazole-4-carboxylic acid] | 100 to 1000 | 10 to 100
CC1(C)CCc2cnn(-c3cccc(-c4cccc(-n5ncc(C(=O)O)c5C(F)(F)F)n4)c3)c21 [Example 204, 1-(6-(3-(6,6-Dimethyl-5,6-dihydrocyclopenta[c]pyrazol-1(4H)-yl)phenyl)pyridin-2-yl)-5-(trifluoromethyl)-1H-pyrazole-4-carboxylic Acid] | 1000 to 10000 | 100 to 1000
Cn1cc(C2CC2c2c(C(=O)O)cnn2-c2cccc(-c3cccc(OCC4CCN(C(=O)OC(C)(C)C)CC4)c3)c2)nn1 (stereo not drawn) [Example 167, 1-(3′-((1-(tert-Butoxycarbonyl)piperidin-4-yl)methoxy)-[1,1′-biphenyl]-3-yl)-5-(2-(1-methyl-1H-1,2,3-triazol-4-yl)cyclopropyl)-1H-pyrazole-4-carboxylic acid] | 100 to 1000 | 10 to 100

Source: patent publication US10364256B2 (GlaxoSmithKline Intellectual Property Development Limited, priority 2015, dated 2019)
